# Test results published in ChEMBL document CHEMBL1137189, “Syntheses and anti-MRSA activities of the C3 analogs of mansonone F, a potent anti-bacterial sesquiterpenoid: insights into its structural requirements for anti-MRSA activity” (2004).
# Test system: Staphylococcus aureus
# Test: Minimum inhibitory concentration against methicillin-resistant Staphylococcus aureus
# Format: functional
Compound,MIC50 [µg/mL],MIC90 [µg/mL]
CC1=C2OC=C(C(F)(F)F)c3ccc(C)c(c32)C(=O)C1=O,16,> 32
CC1=C2OCCc3ccc(C)c(c32)C(=O)C1=O,16,16
CC1=COc2c(C)cc([N+](=O)[O-])c3c(C)ccc1c23,> 32,> 32
COC1=CC(=O)C(=O)C=C1C,> 32,> 32
CC1=COc2c(C)ccc3c(C)ccc1c23,> 32,> 32
CCC1(O)COC2=C(C)C(=O)C(=O)c3c(C)ccc1c32 (configuration not stated),16,16
CC1=C2OC=Cc3ccc(C)c(c32)C(=O)C1=O,8,8
CCC1COC2=C(C)C(=O)C(=O)c3c(C)ccc1c32 (configuration not stated),32,32
CC1=C2OC=C(C(C)C)c3ccc(C)c(c32)C(=O)C1=O,4,4
CCOC(=O)CC1COC2=C(C)C(=O)C(=O)c3c(C)ccc1c32 (configuration not stated),16,32
C=CC1=COC2=C(C)C(=O)C(=O)c3c(C)ccc1c32,> 32,> 32
CCC1=COC2=C(C)C(=O)C(=O)c3c(C)ccc1c32,4,4
CC1=C2OC=C(C#N)c3ccc(C)c(c32)C(=O)C1=O,8,16
CCCCC1=COC2=C(C)C(=O)C(=O)c3c(C)ccc1c32,8,8
CC1=C2OCC(CC(=O)O)c3ccc(C)c(c32)C(=O)C1=O (configuration not stated),> 32,> 32
CC1=C2OC=C(CCO)c3ccc(C)c(c32)C(=O)C1=O,> 32,> 32
CC1=C2OCC(C)(O)c3ccc(C)c(c32)C(=O)C1=O (configuration not stated),16,> 32
COC1=C(C)C(=O)C(=O)c2c(C)cccc21,> 32,> 32
CC1=C2OCC(Cl)(C(F)(F)F)c3ccc(C)c(c32)C(=O)C1=O (configuration not stated),16,16
CC1=C2OCC(C)c3ccc(C)c(c32)C(=O)C1=O (configuration not stated) [MANSONONE E],8,16
CN[C@H](CC(C)C)C(=O)N[C@H]1C(=O)N[C@@H](CC(N)=O)C(=O)N[C@H]2C(=O)N[C@H]3C(=O)N[C@H](C(=O)N[C@H](C(=O)O)c4cc(O)cc(O)c4-c4cc3ccc4O)[C@H](O)c3ccc(c(Cl)c3)Oc3cc2cc(c3O[C@@H]2O[C@H](CO)[C@@H](O)[C@H](O)[C@H]2O[C@H]2C[C@](C)(N)[C@H](O)[C@H](C)O2)Oc2ccc(cc2Cl)[C@H]1O [VANCOMYCIN],2,2
